34 compounds from patent US7495018B2, “Substituted 1,3-thiazole compounds, their production and use” (Takeda Pharmaceutical Company Limited, priority 2000, dated 2009) can be followed below.

Take `CC(=O)Nc1nc(-c2cccc(C)c2)c(-c2cc(C)nc(C)c2)s1` [Example Compound 40-2, N-[5-(2,6-dimethyl-4-pyridyl)-4-(3-methylphenyl)-1,3-thiazol-2-yl]acetamide]: the melting point lay in the range of 185 to 187 °C. For `CC(=O)Nc1nc(-c2cc(C)cc(C)c2)c(-c2cc(C)nc(C)c2)s1` [Example Compound 40-3, N-[4-(3,5-dimethylphenyl)-5-(2,6-dimethyl-4-pyridyl)-1,3-thiazol-2-yl]acetamide], the melting point was in the range of 266 to 267 °C.

With `Cc1cccc(-c2nc(NC(=O)c3cccnc3)sc2-c2ccnc(C)c2)c1` [Example Compound 41, N-[4-(3-methylphenyl)-5-(2-methyl-4-pyridyl)-1,3-thiazol-2-yl]nicotinamide], the melting point fell in the range of 175 to 178 °C. With `Cc1cc(C)cc(-c2nc(NC(=O)c3cccnc3)sc2-c2ccnc(C)c2)c1` [Example Compound 42-1, N-[4-(3,5-dimethylphenyl)-5-(2-methyl-4-pyridyl)-1,3-thiazol-2-yl]nicotinamide] the figure was 203 to 206 °C; with `Cc1cc(C)cc(-c2nc(NC(=O)c3cccnc3)sc2-c2cc(C)nc(C)c2)c1` [Example Compound 42-2, N-[4-(3,5-dimethylphenyl)-5-(2,6-dimethyl-4-pyridyl)-1,3-thiazol-2-yl]nicotinamide], 267 to 268 °C; with `Cc1cccc(-c2nc(NC(=O)c3cccnc3)sc2-c2ccnc(NC3CCCCC3)c2)c1` [Example Compound 42-3, N-[5-(2-cyclohexylamino-4-pyridyl)-4-(3-methylphenyl)-1,3-thiazol-2-yl]nicotinamide], 201 to 203 °C.

As for `Cc1cccc(-c2nc(NC(=O)c3cccnc3)sc2-c2ccnc(NC3CCCC3)c2)c1` [Example Compound 42-4, N-[5-(2-cyclopentylamino-4-pyridyl)-4-(3-methylphenyl)-1,3-thiazol-2-yl]nicotinamide], the melting point lay in the range of 215 to 216 °C.

For `O=C(Nc1nc(-c2ccc(F)cc2)c(-c2ccnc(NC3CCCCC3)c2)s1)c1cccnc1` [Example Compound 42-5, N-[5-(2-cyclohexylamino-4-pyridyl)-4-(4-fluorophenyl)-1,3-thiazol-2-yl]nicotinamide], the melting point fell in the range of 136 to 138 °C. With `Cc1cc(-c2sc(NC(=O)c3cccnc3)nc2-c2ccc(F)cc2)ccn1` [Example Compound 42-7, N-[4-(4-fluorophenyl)-5-(2-methyl-4-pyridyl)-1,3-thiazol-2-yl]nicotinamide] the figure was 261 to 262 °C; with `Cc1cccc(-c2nc(N(C)C(=O)c3cccnc3)sc2-c2ccnc(NC3CCCCC3)c2)c1` [Example Compound 42-8, N-[5-(2-cyclohexylamino-4-pyridyl)-4-(3-methylphenyl)-1,3-thiazol-2-yl]-N-methylnicotinamide], 147 to 148 °C. With `Cc1cccc(-c2nc(N(C)C(=O)c3cccnc3)sc2-c2ccnc(NC3CCCC3)c2)c1` [Example Compound 42-9, N-[5-(2-cyclopentylamino-4-pyridyl)-4-(3-methylphenyl)-1,3-thiazol-2-yl]N-methylnicotinamide] the figure was 148 °C. With `Cc1cccc(-c2nc(NC(=O)c3ccc(Cl)nc3)sc2-c2ccnc(C)c2)c1` [Example Compound 43, 6-chloro-N-[4-(3-methylphenyl)-5-(2-methyl-4-pyridyl)-1,3-thiazol-2-yl]nicotinamide] the figure was 228 to 230 °C; with `Cc1cccc(-c2nc(NC(=O)c3ccc(Cl)nc3)sc2-c2ccnc(NC3CCCCC3)c2)c1` [Example Compound 44-1, 6-chloro-N-[5-(2-cyclohexylamino-4-pyridyl)-4-(3-methylphenyl)-1,3-thiazol-2-yl]nicotinamide], 255 to 256 °C; with `Cc1cccc(-c2nc(NC(=O)c3ccc(Cl)nc3)sc2-c2ccnc(NC3CCCC3)c2)c1` [Example Compound 44-2, 6-chloro-N-[5-(2-cyclopentylamino-4-pyridyl)-4-(3-methylphenyl)-1,3-thiazol-2-yl]nicotinamide], 211 to 212 °C. Compound `Cc1cc(C)cc(-c2nc(NC(=O)c3ccc(Cl)nc3)sc2-c2ccnc(C)c2)c1` [Example Compound 44-3, 6-chloro-N-[4-(3,5-dimethylphenyl)-5-(2-methyl-4-pyridyl)-1,3-thiazol-2-yl]nicotinamide] returned a melting point of 271 to 273 °C. With `Cc1cccc(-c2nc(N(C)C(=O)c3ccc(Cl)nc3)sc2-c2ccnc(NC3CCCCC3)c2)c1` [Example Compound 44-4, 6-chloro-N-[5-(2-cyclohexylamino-4-pyridyl)-4-(3-methylphenyl)-1,3-thiazol-2-yl]-N-methylnicotinamide] the figure was 171 to 172 °C; with `Cc1cccc(-c2nc(NC(=O)c3ccc(C)nc3)sc2-c2ccnc(C)c2)c1` [Example Compound 45, 6-methyl-N-[4-(3-methylphenyl)-5-(2-methyl-4-pyridyl)-1,3-thiazol-2-yl]nicotinamide], 233 to 234 °C.

`Cc1cccc(-c2nc(NC(=O)c3ccc(C)nc3)sc2-c2ccnc(NC3CCCCC3)c2)c1` [Example Compound 46-1, N-[5-(2-cyclohexylamino-4-pyridyl)-4-(3-methylphenyl)-1,3-thiazol-2-yl]-6-methylnicotinamide] displayed a melting point of 242 to 243 °C.

Compound `Cc1cccc(-c2nc(NC(=O)c3ccc(C)nc3)sc2-c2ccnc(NC3CCCC3)c2)c1` [Example Compound 46-2, N-[5-(2-cyclopentylamino-4-pyridyl)-4-(3-methylphenyl)-1,3-thiazol-2-yl]-6-methylnicotinamide] yielded a melting point of 213 to 214 °C.

`Cc1cc(C)cc(-c2nc(NC(=O)c3ccc(C)nc3)sc2-c2ccnc(C)c2)c1` [Example Compound 46-3, N-[4-(3,5-dimethylphenyl)-5-(2-methyl-4-pyridyl)-1,3-thiazol-2-yl]-6-methylnicotinamide]: the melting point was 252 to 253 °C. With `Cc1cccc(-c2nc(N(C)C(=O)c3ccc(C)nc3)sc2-c2ccnc(NC3CCCC3)c2)c1` [Example Compound 46-4, N-[5-(2-cyclopentylamino-4-pyridyl)-4-(3-methylphenyl)-1,3-thiazol-2-yl]-N,6-dimethylnicotinamide] the figure was 117 to 118 °C; with `COc1ccc(C(=O)Nc2nc(-c3cccc(C)c3)c(-c3ccnc(C)c3)s2)cn1` [Example Compound 47, 6-methoxy-N-[4-(3-methylphenyl)-5-(2-methyl-4-pyridyl)-1,3-thiazol-2-yl]nicotinamide], 224 to 226 °C. With `COc1ccc(C(=O)Nc2nc(-c3cccc(C)c3)c(-c3ccnc(NC4CCCCC4)c3)s2)cn1` [Example Compound 48-1, N-[5-(2-cyclohexylamino-4-pyridyl)-4-(3-methylphenyl)-1,3-thiazol-2-yl]-6-methoxynicotinamide] the figure was 191 to 192 °C. In turn, `COc1ccc(C(=O)Nc2nc(-c3cccc(C)c3)c(-c3ccnc(NC4CCCC4)c3)s2)cn1` [Example Compound 48-2, N-[5-(2-cyclopentylamino-4-pyridyl)-4-(3-methylphenyl)-1,3-thiazol-2-yl]-6-methoxynicotinamide] yielded a melting point of 219 to 221 °C.

The compound `COc1ccc(C(=O)Nc2nc(-c3cc(C)cc(C)c3)c(-c3ccnc(C)c3)s2)cn1` [Example Compound 48-3, N-[4-(3,5-dimethylphenyl)-5-(2-methyl-4-pyridyl)-1,3-thiazol-2-yl]-6-methoxynicotinamide] gave a melting point of 242 to 244 °C. With `COc1ncccc1C(=O)Nc1nc(-c2cccc(C)c2)c(-c2ccnc(C)c2)s1` [Example Compound 49, 2-methoxy-N-[4-(3-methylphenyl)-5-(2-methyl-4-pyridyl)-1,3-thiazol-2-yl]nicotinamide] the figure was 169 to 170 °C; with `COc1ccc(-c2nc(NC(C)=O)sc2-c2ccnc(N)c2)cc1` [Example Compound 50, N-[5-(2-amino-4-pyridyl)-4-(4-methoxyphenyl)-1,3-thiazol-2-yl]acetamide], 247 to 250 °C; with `COc1ccc(-c2nc(NC(=O)c3ccccc3)sc2-c2ccnc(N)c2)cc1` [Example Compound 51, N-[5-(2-amino-4-pyridyl)-4-(4-methoxyphenyl)-1,3-thiazol-2-yl]benzamide], 219 to 222 °C. With `Cc1cc(C)cc(-c2nc(NC(=O)Nc3ccccc3)sc2-c2cc(C)nc(C)c2)c1` [Example Compound 53-1, N-[4-(3,5-dimethylphenyl)-5-(2,6-dimethyl-4-pyridyl)-1,3-thiazol-2-yl]-N′-phenylurea] the figure was 219 to 222 °C; with `Cc1cccc(-c2nc(NC(=O)Nc3ccccc3)sc2-c2ccnc(NC3CCCCC3)c2)c1` [Example Compound 53-2, N-[5-(2-cyclohexylamino-4-pyridyl)-4-(3-methylphenyl)-1,3-thiazol-2-yl]-N′-phenylurea], 198 to 199 °C.

`Cc1cccc(-c2nc(NC(=O)Nc3ccccc3)sc2-c2ccnc(NC3CCCC3)c2)c1` [Example Compound 53-3, N-[5-(2-cyclopentylamino-4-pyridyl)-4-(3-methylphenyl)-1,3-thiazol-2-yl]-N′-phenylurea] gave a melting point of 188 to 190 °C. With `Cc1cccc(-c2nc(NC(=O)Nc3ccccc3)sc2-c2ccnc(C)c2)c1` [Example Compound 53-4, N-[4-(3-methylphenyl)-5-(2-methyl-4-pyridyl)-1,3-thiazol-2-yl]-N′-phenylurea] the figure was 168 to 169 °C; with `Cc1cc(C)cc(-c2nc(-c3ccc([S+](C)[O-])cc3)sc2-c2ccnc(C)c2)c1` (stereo not shown) [Example Compound 56-1, 4-(3,5-dimethylphenyl)-5-(2-methyl-4-pyridyl)-2-(4-methylsulfinylphenyl)-1,3-thiazole], 151 to 153 °C; with `Cc1cc(C)cc(-c2nc(-c3ccc([S+](C)[O-])cc3)sc2-c2cc(C)nc(C)c2)c1` (stereo not shown) [Example Compound 56-2, 4-(3,5-dimethylphenyl)-5-(2,6-dimethyl-4-pyridyl)-2-(4-methylsulfinylphenyl)-1,3-thiazole], 151 to 154 °C.
